Test results: PMC11988034, “Exposure–Response Relationships for Toceranib in Dogs with Solid Tumors: A Pilot Study” (Animals : an Open Access Journal from MDPI, 2025)
Read-outs that look alike come from different tables or passages of the source.

Tests used:
[1] = Plasma toceranib concentration (LC–MS/MS) in dogs with solid tumors treated with TOC; format: in vivo; settings: for concentration at 48 h / Cmax: plasma; for concentration at 48 h: oral; for Cmax: po
Procedure: A prospective, randomized clinical trial was conducted on client-owned dogs diagnosed with malignant solid tumors between May 2022 and October 2023 at the Konkuk University Animal Cancer Center. TOC ([…], NJ, USA) was administered orally at a dose range of 2.4-2.9 mg/kg every other day with or without food. Medical data for the dogs were collected, including signalment (age, sex, and neuter status); physical examination, blood pressure, hematology, biochemistry, urinalysis, diagnostic imaging (radiography, ultrasound, and computed tomography), and histopathological findings (surgical margin and mitotic count); TOC dose and duration of TOC treatment; and AEs and clinical outcomes. Dogs were excluded from this study if distant metastases were confirmed at the time of diagnosis or if the TOC treatment duration was less than 1 month, which is insufficient for evaluating its effect. This clinical trial was approved by the Institutional Animal Care and Use Committee of the Konkuk University (approval no. KU 23046). Whole blood (1-2 mL) was obtained from the external jugular vein after initiation of postoperative TOC treatment. Blood samples were collected in ethylenediaminetetraacetic acid tubes 6 h (Cmax) and 48 h (Cmin) after administration; these time points were determined based on previous studies. Within 30 min of collection, the samples were centrifuged at 3000× g for 10 min at 4 °C. The plasma was separated, divided into cryovials, and stored at -80 °C until analysis. […] Plasma toceranib was quantitated via high-performance liquid chromatography with tandem mass spectrometry detection (LC-MS/MS). […] After thorough vortexing for 1 min, the mixture was centrifuged at 15,000× g for 10 min at 4 °C, and 2 μL of the supernatant was collected and injected into the LC-MS/MS system. The LC-MS/MS system comprised an ExionLCTM AD system (Sciex, Toronto, ON, Canada) coupled with a Triple QuadTM 5500+ mass system (Sciex). Data were acquired using Analyst 1.4.3. Chromatographic separation was performed using an XBridge C18 column (100 × 2.1 mm, 5 μm; Waters Corporation, Milford, MA, USA) maintained at 40 °C. An isocratic mobile phase comprising 0.1% formic acid in water and 0.1% formic acid in acetonitrile (30:70, v/v) was used at a flow rate 0.50 mL/min, with the total run time not exceeding 3 min. The autosampler was maintained at 15 °C. All measurements were conducted using a mass spectrometer operated in the positive electrospray ionization mode. The multiple reaction monitoring transitions were m/z 397.2 → 283.0 for toceranib and m/z 405.2 → 283.1 for the toceranib-d8 internal standard (IS). The other parameters were as follows: collision gas, curtain gas, ion source gas 1, and ion source gas 2 at 7, 35, 50, and 70 psi, respectively; dwell time, 200 ms; ion spray voltage and temperature, 4000 V and 600 °C, respectively; declustering potential, 80 V for toceranib and the IS; collision energy, 40 V for toceranib and the IS; entrance potential (EP), 12 V for toceranib and 8 V for IS; and collision exit potential, 16 V for toceranib and 18 V for the IS. Standard curves were generated using the peak area ratios of toceranib to the IS and 1/x^2 weighted linear regression. Toceranib concentrations were determined via interpolation across a range of 5-500 ng/mL. Continuous variables are expressed as the mean ± standard deviation. Interpatient variability is expressed as the coefficient of variation, calculated as standard deviation divided by the mean and expressed as a percentage. Normality was assessed using the Shapiro-Wilk test. Continuous variables were compared using Student's t-test or Mann-Whitney U test. Linear mixed models for repeated measures were used to compare plasma TOC concentrations over time. Data were analyzed using SPSS v26.0 (IBM Corp., Armonk, NY, USA). Differences were considered significant at p < 0.05.

malignant solid tumors = assay: Assessment of clinical outcome (tumor recurrence) in dogs with solid tumors on postoperative TOC; format: in vivo
Procedure: A prospective, randomized clinical trial was conducted on client-owned dogs diagnosed with malignant solid tumors between May 2022 and October 2023 at the Konkuk University Animal Cancer Center. TOC (Palladia®, Zoetis, Parsippany, NJ, USA) was administered orally at a dose range of 2.4–2.9 mg/kg every other day with or without food. Medical data for the dogs were collected, including signalment (age, sex, and neuter status); physical examination, blood pressure, hematology, biochemistry, urinalysis, diagnostic imaging (radiography, ultrasound, and computed tomography), and histopathological findings (surgical margin and mitotic count); TOC dose and duration of TOC treatment; and AEs and clinical outcomes. Dogs were excluded from this study if distant metastases were confirmed at the time of diagnosis or if the TOC treatment duration was less than 1 month, which is insufficient for evaluating its effect. This clinical trial was approved by the Institutional Animal Care and Use Committee of the Konkuk University (approval no. KU 23046).
Rechecks were performed every 1–2 months after the initiation of TOC treatment through physical examination, three-view thoracic radiography, and abdominal ultrasonography.

[2] = Assessment of adverse events (VCOG-CTCAE v2.0) in dogs treated with TOC; format: in vivo
Procedure: AEs were evaluated before TOC treatment (at baseline) and 1, 2, and 4 weeks thereafter, followed by regular check-ups every 1–2 months. At each follow-up, a physical examination, blood pressure measurement, hematological and biochemical tests, and urinalysis were performed. AEs were graded according to the Veterinary Cooperative Oncology Group Common Terminology Criteria for AEs (v2.0). Concomitant medications, including famotidine, omeprazole, silymarin, ursodeoxycholic acid, mirtazapine, and tramadol, were allowed to prevent or treat drug-related AEs. TOC was permanently discontinued upon request of the owner or if unacceptable AEs occurred or disease progression was identified.

[3] = cited from earlier work
[4] = parameters: method as in PMID 24079884; settings: cited from earlier work
[5] = parameters: method as in PMID 12855656; settings: preclinical trials in rodent models; cited from earlier work
canine solid tumors = system: canine solid tumors; parameters: method as in PMID 12855656, PMID 22236194, PMID 34981886; settings: various types of canine solid tumors; cited from earlier work
[6] = cited from earlier work; remark: listed apart in the source
[7] = parameters: method as in PMID 34512023, PMID 31782166; settings: patients with metastatic renal cell tumors; cited from earlier work

Cc1[nH]c(/C=C2\C(=O)Nc3ccc(F)cc32)c(C)c1C(=O)NCCN1CCCC1 [TOC, Toceranib phosphate]
mean interpatient variability in dose-normalized Cmax (coefficient of variation) ([1]; dog, in vivo): 29% | mean interpatient variability in dose-normalized Cmin (coefficient of variation) ([1]; dog, in vivo, 48 h): 61% | concentration at 48 h ([1]; dog, dogs with AEs, read-out: mean Cmin): 13.5 ± 12.1 ng/mL | concentration at 48 h ([1]; dog, dogs without AEs, read-out: mean Cmin): 14.9 ± 11.3 ng/mL | concentration at 48 h ([1]; dog, four dogs, mean ± SD, read-out: overall mean Cmin): 14.2 ± 9.57 ng/mL | Cmax ([1]; dog, dogs with AEs, read-out: mean Cmax at week 1): 89.3 ± 26.3 ng/mL | Cmax ([1]; dog, dogs with AEs, read-out: mean Cmax on average): 86.2 ± 28.6 ng/mL | Cmax ([1]; dog, dogs with tumor recurrence, read-out: mean Cmax at week 1): 74.6 ± 49.9 ng/mL | Cmax ([1]; dog, dogs with tumor recurrence, read-out: mean Cmax on average): 82.7 ± 42.6 ng/mL | Cmax ([1]; dog, dogs without AEs, read-out: mean Cmax at week 1): 59.9 ± 20.2 ng/mL | Cmax ([1]; dog, dogs without AEs, read-out: mean Cmax on average): 64.1 ± 8.58 ng/mL | Cmax ([1]; dog, dogs without tumor recurrence, read-out: mean Cmax at week 1): 77 ± 13.7 ng/mL | Cmax ([1]; dog, dogs without tumor recurrence, read-out: mean Cmax on average): 73.2 ± 12.3 ng/mL | Cmax ([1]; dog, individual dogs (case no. in c0), plasma 6 h after oral administration, week 12, read-out: Cmax Week 12): 47.4 ng/mL | Cmax ([1]; dog, nine dogs, average of weeks, mean ± SD, read-out: overall mean Cmax on average): 76.4 ± 22.5 ng/mL | Cmax ([1]; dog, nine dogs, mean ± SD, read-out: overall mean Cmax at week 1): 76.2 ± 27.2 ng/mL | time to steady-state plasma concentration ([1]; dogs, oral dosing every other day): ≤ 1 week | dogs that developed tumor recurrence (malignant solid tumors; three of the nine dogs with Cmax measured): 33.3% | dogs that developed local recurrence (malignant solid tumors; three out of ten dogs, follow-up period): 30% | dogs that experienced AEs ([2]; five of the nine dogs in which Cmax was measured): 55.6% | dogs that experienced AEs ([2]; five out of ten dogs, follow-up period): 50% | dogs that experienced AEs ([2]; two of the four dogs in which Cmin was measured): 50% | Cmax level associated with clinical efficacy ([3]; dogs with mast cell tumors receiving TOC at the MTD): at least 40 ng/mL | elimination half-life ([3]; in dogs): approximately 17 h | interpatient coefficient of variation for Cmax ([3]; previous PK study): 35–40% | interpatient coefficient of variation for Cmin ([3]; previous PK study): 30–61% | resulting Cmax ([4]; TOC administered within 2.4 to 2.9 mg/kg): > 40 ng/mL | dogs in which Cmax was reached at 6 or 8 h post-administration [4]: 69% | plasma concentration at 6 or 8 h as share of actual Cmax in the remaining dogs [4]: > 75% | therapeutic range (plasma concentration) [5]: 50 to 100 ng/mL | clinical benefit (canine solid tumors): 50–90% | biological activity (dogs responding) ([6]; 11/16 dogs treated with 2.5 mg/kg TOC every other day): 69% | biological activity (dogs responding) ([6]; 12/20 dogs treated with TOC at the MTD): 60% | maximum tolerated dose (MTD) ([6]; every other day, dogs): 3.25 mg/kg

CCN(CC)CCNC(=O)c1c(C)[nH]c(/C=C2\C(=O)Nc3ccc(F)cc32)c1C [sunitinib]
interpatient PK variability [7]: 34–60%
